This is an account of results in patent US20100311757A1, “Salarins And Tulearins, Compositions And Uses Thereof” (RAMOT AT TEL-AVIV UNIVERSITY LTD., priority 2007, published 2010).

In one test the test system is UT7. Description: MTT colorimetric cell proliferation assay, UT7 cells. The format is cell-based, human. To be noted: for inhibition of cell growth, dose and time dependence: various concentrations, 24, 48 and 72 hours. As to the method: (§1) The anti-cancer activities of the compounds of the invention have been determined in-vitro in human and mouse leukemia cell lines. The procedure was carried out using the colorimetric methyl thiazol tetrazoliumbromide (MTT) assay for measuring cell proliferation (Carmichael et al., (1987), Cancer Res. 47: 936-942).
(§2) The Human leukemia cell lines K562 (Lozzio and Lozzio (1975) Blood, 45, 321-334) and UT7 (Komatsu et al. (1991), Cancer Res. 51, 341-348) were grown in RPMI 1640 and IMDM medium respectively, supplemented with 10% fetal bovine serum (FBS), 2 mM L-glutamine, 100 ug/ml streptomycin and 100 u/ml penicillin. The murine Ba/F3 cell line stably transfected with the erythropoietin receptor (EPO-R) cDNA (D'Andrea et al., (1991), Mol. Cell. Biol. 11, 1980-1987) was cultured in RPMI medium supplemented with recombinant human EPO (rHuEPO, 0.5 U/ml). UT7 cells were cultured in the presence of 2 U/ml rHuEPO. Cells were maintained at 37° C. in a 5% CO2 humidified incubator.
(§3) Cells (4×10^3) were seeded in triplicate into 96-well, flat-bottom culture plates and grown in the presence of the compounds at different concentrations for 24, 48 and 72 hours. Untreated cells served as control. After incubation with the compound, cell growth was determined using the colorimetric methylthiazole tetrazolium bromide (MTT) assay (Mosmann (1983), J Immunol Methods 65, 55-63). Briefly, MTT was added to a final concentration of 5 μg/ml to each well and further incubated for 4 hours at 37° C. After complete solubilization of the dye by acid/alcohol (0.04 N HCl in 2-propanol), plates were read at 570 nm in an ELISA reader, reference 690 nm. Growth of cells exposed to treatment was calculated as the percent of optical density (OD) of the compound-treated cells to that of the non-treated cells.

The test system of test [1] is Ba/F3 cells expressing the EPO-R. The experiment in a line: MTT colorimetric cell proliferation assay, Ba/F3 cells expressing EPO-R. It is filed as cell-based, murine. As to the method:
as §1, §2, §3

The test system of test [2] is UT-7, K562 and Ba/F3 cell lines. Description: MTT colorimetric cell proliferation assay, statements across the three cell lines. It is filed as cell-based, human and mouse. As to the method:
as §1, §2, §3

The subject of a further test is K562. The experiment in a line: MTT colorimetric cell proliferation assay, K562 cells. The format is cell-based, human. As to the method:
as §1, §2, §3

The subject of test [3] is Ba/F3, K562 and UT7 cell lines. The experiment in a line: Cell morphology by phase contrast microscopy. It is filed as cell-based, human and mouse. To be noted: 0.01 μM or 0.2 μM, over-night. As to the method:
Cells were viewed in phase contrast microscopy. The size bar indicates a size of 15 um.
The potential effects of Salarin C on cell proliferation were also tested. Human leukemic cell lines UT-7 and K562, and the murine pro B cell line Ba/F3 which stably expresses the EPO receptor (EPO-R) were used as targets. […] Salarin C at concentrations of 0.0005-0.5 μg/ml was added to the cells for 24 hours, and cell viability was determined by the MTT assay (FIG. 24B). ˜50% inhibition of cell proliferation was obtained at 0.5 μg/ml (1 μM) of Salarin C for the UT-7 cell line and at 0.05 μg/ml (0.1 μM) for the K562 cell line. […] The effect of Salarin C on cell viability was also observed by microscopy (FIG. 25).

Broadly, the inhibition is the change of the read-out against control, counted positive when it falls. A lower inhibition goes with little suppression. Take `CCCCCCCC(=O)OCC/C=C/C1OC1C1OC(=O)/C=C\C=C\C(=O)N(C(C)=O)C(=O)/C=C(/C)CCC2OC2C1OC(=O)NC(C)=O` (centres unmarked) [Salarin A]: the inhibition at 1 µg/mL in the test on UT7 (Homo sapiens, UT7 cells, 1 μg/ml, 72 h of exposure) is 45%. Further, in the test on UT7 (UT7 cells), the “inhibition of cell growth, dose and time dependence” value is “in a dose and time dependent manner”. This molecule yielded an inhibition at 0.5 µg/mL in test [1] (Mus musculus, BaF3, Ba/F3 cells expressing EPO-R, 0.5 ug/ml, 72 h of exposure) of 48%.
`CCCCCCCC(=O)OCC/C=C/C1OC1C1OC(=O)/C=C\C=C\c2nc(oc2C)/C=C(/C)CCC2OC2C1OC(=O)NC(C)=O` (centres unmarked) [Salarin C] had an inhibition at 1 µM with UT7 (Homo sapiens, UT7, UT-7 cells, 0.5 μg/ml (1 μM), 24 hours) of roughly 50%. Besides, the cell viability result in the test with UT7 (UT-7 cells, 0.5 μg/ml (1 μM), 72 h) was “abolished nearly all viability”; in the test with K562 (0.5 μg/ml (1 μM), 72 h) it was “abolished nearly all viability”; in test [1] (Ba/F3 cells, 0.5 μg/ml (1 μM), 72 h), “abolished nearly all viability”. Moreover, the relative potency entry in test [2] (0.5 μg/ml, 72 h, three tested cell lines) is “more potent than Salarins A and B and Tulearin A”. In test [2] (0.0005-0.5 μg/ml, 24 hours), the “anti-proliferative activity, dose dependence” value is “dose-dependent”. Further, the IC50 in test [2] (24 hours, across the tested cell lines, read-out: effective concentration range (IC50)) was in the range of 100 to 1000 nM. The inhibition at 0.1 µM in the test on K562 (Homo sapiens, 0.05 μg/ml (0.1 μM), 24 hours) was roughly 50%. Also, the “cell viability and morphology by microscopy” value in test [3] is “lower viability and characteristics of apoptotic cells”. Besides, the proliferation result in test [1] (Ba/F3 cells, 0.1 μM, 24 hours) was “completely arrested”.
For `CCCCC/C=C/C(C)=C/C1CC(C)C/C=C/CCC(O)C(OC(N)=O)CCC(C)CC(O)C(C)C(=O)O1` (centres unmarked) [Tulearin A], the inhibition at 0.5 µg/mL worked out at 35% in the test with UT7 (Homo sapiens, UT7 cells, 0.5 ug/ml, 72 h of exposure) and 62% in the test on K562 (Homo sapiens, 0.5 ug/ml, 72 h of exposure). For the same molecule, the “inhibition of cell growth, dose and time dependence” value was “in a dose and time dependent manner” with UT7 (UT7 cells); “in a dose and time dependent manner” in the test with K562 (various concentrations, 24, 48 and 72 hours).
